*1 amine or outer side, *2 acyl side, *3 side chain or, on linkers, in order; H or OH if unused. Where a SMILES comes first, the peptide text is derived from it. Bridges are numbered along the chain shown (N, C = ends). [ ]: non-standard residue; d: D form. ξ: configuration not given here. Trp(1-CH2COOH) = N[C@@H](Cc1cn(CC(=O)O)c2ccccc12)C(=O)O; Phe(3,4,5-F3) = N[C@@H](Cc1cc(F)c(F)c(F)c1)C(=O)O; Phe(3,4-F2) = N[C@@H](Cc1ccc(F)c(F)c1)C(=O)O; NMePhe(4-F) = CN[C@@H](Cc1ccc(F)cc1)C(=O)O; d(cisHyp) = O=C(O)[C@H]1C[C@@H](O)CN1; Bta = N[C@@H](Cc1csc2ccccc12)C(=O)O; Hyp = O=C(O)[C@@H]1C[C@@H](O)CN1; NMeF = CN[C@@H](Cc1ccccc1)C(=O)O; X1 = O=C([C@H]1COCCN1[*:1])[*:2]; dNMeF = CN[C@H](Cc1ccccc1)C(=O)O; Thr(3ξ) = CC(O)[C@H](N)C(=O)O; NMeNle = CCCC[C@H](NC)C(=O)O; hSer = N[C@@H](CCO)C(=O)O; NMeA = CN[C@@H](C)C(=O)O; Orn = NCCC[C@H](N)C(=O)O; Dab = NCC[C@H](N)C(=O)O; Dap = NC[C@H](N)C(=O)O; ξC = NC(CS)C(=O)O

Experimental findings from patent US10538555B2, “Macrocyclic inhibitors of the PD-1/PD-L1 and CD80(B7-1)/PD-L1 protein/protein interactions” (BRISTOL-MYERS SQUIBB COMPANY, priority 2014, dated 2020) are described below.

This test has as its target T1, Human PD-L1/PD-1 (Homo sapiens, UniProt Q9NZQ7).
T1 construct: TVMV protease cleavage site (C); made in house; host or cells: HEK293T cells
Briefly: HTRF Human PD-L1/PD-1 binding assay (PD-1-Ig/PD-L1-His). As to conditions: PD-L1-His 10 nM, PD-1-Ig 20 nM; class symbol; read-out: HTRF Human PD-L1/PD-1 Binding Assay IC50 Range. An outline of the steps: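 HTRF competition using HEK293T-expressed human PD-1(25-167)-Ig at 20 nM and PD-L1(18-239)-His at 10 nM, compound incubated first with PD-L1 for 15 min, then with PD-1 for 15 min. Signal read as 665/620 nm ratio 30 min after adding Eu anti-Ig and APC anti-His antibodies.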
(In general: TR-FRET usually uses a lanthanide donor and a delayed reading to cut background.)

T1 sequence (Q9NZQ7 with tags, fused parts or gaps): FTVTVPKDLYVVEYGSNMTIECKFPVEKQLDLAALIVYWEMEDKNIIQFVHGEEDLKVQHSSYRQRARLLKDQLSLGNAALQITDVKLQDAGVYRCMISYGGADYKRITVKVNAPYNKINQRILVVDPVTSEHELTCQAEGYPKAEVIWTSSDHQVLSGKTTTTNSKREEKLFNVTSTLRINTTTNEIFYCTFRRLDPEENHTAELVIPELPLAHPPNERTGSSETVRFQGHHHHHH

As to `CCCC[C@H]1C(=O)N(C)[C@@H](CCCC)C(=O)N[C@@H](CCC(=O)O)C(=O)N[C@H](C(=O)NCC(N)=O)CSCC(=O)N[C@@H](Cc2ccc(O)cc2)C(=O)N(C)[C@@H](C)C(=O)N[C@@H](CC(=O)O)C(=O)N2CCC[C@H]2C(=O)N[C@@H](Cc2cnc[nH]2)C(=O)N[C@@H](CCC(=O)O)C(=O)N2C[C@H](O)C[C@H]2C(=O)N[C@@H](Cc2c[nH]c3ccccc23)C(=O)N[C@@H](CCC(=O)O)C(=O)N[C@@H](Cc2c[nH]c3ccccc23)C(=O)N1C` [Example 5236] ({CH2CO}-Y[NMeA]DPHE[Hyp]WEW[NMeNle][NMeNle]ECG-NH2; thioether N-14), the IC50 is 1 to 9.9 nM.

`CCCC[C@H]1C(=O)N(C)[C@@H](CCCC)C(=O)N[C@@H](CCC(=O)O)C(=O)N[C@H](C(=O)NCC(N)=O)CSCC(=O)N[C@@H](Cc2ccc(O)cc2)C(=O)N(C)[C@@H](C)C(=O)N[C@@H](CC(N)=O)C(=O)N2CCC[C@H]2C(=O)N[C@@H](CN)C(=O)N[C@@H](CCC(N)=O)C(=O)N2C[C@H](O)C[C@H]2C(=O)N[C@@H](Cc2c[nH]c3ccccc23)C(=O)N[C@@H](CO)C(=O)N[C@@H](Cc2c[nH]c3ccccc23)C(=O)N1C` [Example 5208] ({CH2CO}-Y[NMeA]NP[Dap]Q[Hyp]WSW[NMeNle][NMeNle]ECG-NH2; thioether N-14): the IC50 fell in the range of 1 to 9.9 nM.

With `CCCC[C@H]1C(=O)N(C)[C@@H](CCCC)C(=O)N[C@@H](CCCN)C(=O)NC(C(=O)NCC(N)=O)CSCC(=O)N[C@@H](Cc2ccc(O)cc2)C(=O)N(C)[C@@H](C)C(=O)N[C@@H](CC(N)=O)C(=O)N2CCC[C@H]2C(=O)N[C@@H](CC(N)=O)C(=O)N[C@@H](CC(C)C)C(=O)N2C[C@H](O)C[C@H]2C(=O)N[C@@H](Cc2c[nH]c3ccccc23)C(=O)N[C@@H](CO)C(=O)N[C@@H](Cc2csc3ccccc23)C(=O)N1C` (stereo partly drawn) [Example 9158] ({CH2CO}-Y[NMeA]NPNL[Hyp]WS[Bta][NMeNle][NMeNle][Orn][ξC]G-NH2; thioether N-14), the IC50 was 1 to 9.9 nM.

In the case of `CCCC[C@H]1C(=O)N(C)[C@@H](CCCC)C(=O)N[C@@H](C(C)O)C(=O)N[C@H](C(=O)NCC(N)=O)CSCC(=O)N[C@@H](Cc2ccc(OC)cc2)C(=O)N(C)[C@@H](C)C(=O)N[C@@H](CC(N)=O)C(=O)N2CCC[C@H]2C(=O)N[C@@H](Cc2c[nH]cn2)C(=O)N[C@@H](CCC(N)=O)C(=O)N2C[C@H](O)C[C@H]2C(=O)N[C@@H](Cc2c[nH]c3ccccc23)C(=O)N[C@@H](CO)C(=O)N[C@@H](Cc2c[nH]c3ccccc23)C(=O)N1C` (stereo partly drawn) [Example 7139] ({CH2CO}-Y(Me)[NMeA]NPHQ[Hyp]WSW[NMeNle][NMeNle][Thr(3ξ)]CG-NH2; thioether N-14), the IC50 is 1 to 9.9 nM.

In the case of `CCCC[C@H]1C(=O)N(C)[C@@H](C)C(=O)N[C@@H](CCCNC(=N)N)C(=O)NC(C(=O)NCC(N)=O)CSCC(=O)N[C@@H](Cc2ccc(O)cc2)C(=O)N(C)[C@@H](C)C(=O)N[C@@H](CC(N)=O)C(=O)N2CCC[C@H]2C(=O)N[C@@H](Cc2cnc[nH]2)C(=O)N[C@H](CO)C(=O)N2C[C@H](O)C[C@H]2C(=O)N[C@@H](Cc2c[nH]c3ccccc23)C(=O)N[C@@H](CO)C(=O)N[C@@H](Cc2csc3ccccc23)C(=O)N1C` (stereo partly drawn) [Example 9120] ({CH2CO}-Y[NMeA]NPH[dS][Hyp]WS[Bta][NMeNle][NMeA]R[ξC]G-NH2; thioether N-14), the IC50 lay in the range of 10 to 99.9 nM.

`CCCC[C@H]1C(=O)N[C@@H](CC(N)=O)C(=O)N2CCC[C@H]2C(=O)N[C@@H](CO)C(=O)N[C@@H](CCO)C(=O)N2CCC[C@H]2C(=O)N[C@@H](Cc2c[nH]c3ccccc23)C(=O)N[C@@H](CO)C(=O)N[C@@H](Cc2c[nH]c3ccccc23)C(=O)N(C)[C@@H](C)C(=O)N(C)[C@@H](C)C(=O)N[C@@H](CCCN)C(=O)NC(C(=O)NCC(N)=O)CSCC(=O)N[C@@H](Cc2ccc(O)cc2)C(=O)N1C` (stereo partly drawn) [Example 10210] ({CH2CO}-Y[NMeNle]NPS[hSer]PWSW[NMeA][NMeA][Orn][ξC]G-NH2; thioether N-14): the IC50 fell in the range of 1000 to 10000 nM.

As for `CCCC[C@H]1C(=O)N2C[C@H](O)C[C@@H]2C(=O)N[C@@H](CC(=O)O)C(=O)N[C@@H](C(C)C)C(=O)N(C)[C@@H](Cc2ccccc2)C(=O)N[C@@H](Cc2ccc(O)cc2)C(=O)N2C[C@H](O)C[C@@H]2C(=O)N[C@@H](Cc2c[nH]c3ccccc23)C(=O)N[C@@H](Cc2ccc(O)cc2)C(=O)N[C@@H](CCC(=O)O)C(=O)N[C@H](C(=O)NCC(N)=O)CSCC(=O)N[C@@H](Cc2cc(F)c(F)c(F)c2)C(=O)N(C)[C@@H](Cc2ccccc2)C(=O)N1C` [Example 9326] ({CH2CO}-[Phe(3,4,5-F3)][NMeF][NMeNle][d(cisHyp)]DV[NMeF]Y[d(cisHyp)]WYECG-NH2; thioether N-13), the IC50 was 10 to 99.9 nM.

`CCCC[C@H]1C(=O)N2CCC[C@@H]2C(=O)N[C@@H](CC(=O)O)C(=O)N[C@@H](C(C)C)C(=O)N(C)[C@@H](Cc2ccccc2)C(=O)N[C@@H](CCC(=O)O)C(=O)N2CCOC[C@@H]2C(=O)N[C@@H](Cc2c[nH]c3ccccc23)C(=O)N[C@@H](Cc2ccc(O)cc2)C(=O)N[C@@H](CCCCN)C(=O)N[C@H](C(=O)NCC(N)=O)CSCC(=O)N[C@@H](Cc2cc(F)c(F)c(F)c2)C(=O)N(C)[C@@H](Cc2ccc(F)cc2)C(=O)N1C` [Example 10598] ({CH2CO}-[Phe(3,4,5-F3)][NMePhe(4-F)][NMeNle][dP]DV[NMeF]E[X1]WYKCG-NH2; thioether N-13): the IC50 was in the range of 1 to 9.9 nM.

As to `CCCC[C@H]1C(=O)N(C)[C@@H](CCCC)C(=O)N[C@@H](CN)C(=O)N[C@H](C(=O)NCC(N)=O)CSCC(=O)N[C@@H](Cc2ccc(O)cc2)C(=O)N(C)[C@@H](C)C(=O)N[C@@H](CC(N)=O)C(=O)N2CCC[C@H]2C(=O)N[C@@H](CN)C(=O)N[C@@H](CCC(N)=O)C(=O)N2C[C@H](O)C[C@H]2C(=O)N[C@@H](Cc2c[nH]c3ccccc23)C(=O)N[C@@H](CO)C(=O)N[C@@H](Cc2cn(CC(=O)O)c3ccccc23)C(=O)N1C` [Example 5253] ({CH2CO}-Y[NMeA]NP[Dap]Q[Hyp]WS[Trp(1-CH2COOH)][NMeNle][NMeNle][Dap]CG-NH2; thioether N-14), the IC50 lay within 1 to 9.9 nM.

As for `CCCC[C@H]1C(=O)N(C)[C@@H](CCCC)C(=O)N[C@@H](CCC(=O)O)C(=O)NC(C(=O)NCC(N)=O)CSCC(=O)N[C@@H](Cc2ccc(O)cc2)C(=O)N(C)[C@@H](C)C(=O)N[C@@H](CC(N)=O)C(=O)N2CCC[C@H]2C(=O)N[C@@H](Cc2c[nH]cn2)C(=O)N[C@@H](CC(N)=O)C(=O)N2C[C@H](O)C[C@H]2C(=O)N[C@@H](Cc2c[nH]c3ccccc23)C(=O)N[C@@H](CCN)C(=O)N[C@@H](Cc2c[nH]c3ccccc23)C(=O)N1C` (stereo partly drawn) [Example 9183] ({CH2CO}-Y[NMeA]NPHN[Hyp]W[Dab]W[NMeNle][NMeNle]E[ξC]G-NH2; thioether N-14), the IC50 is 1 to 9.9 nM.

`CCCC[C@H]1C(=O)N(C)[C@@H](CCCC)C(=O)N[C@@H](CCCN)C(=O)N[C@H](C(=O)NCC(N)=O)CSCC(=O)N[C@@H](Cc2ccc(O)cc2)C(=O)N2CCC(C)(C)[C@H]2C(=O)N[C@@H](CC(N)=O)C(=O)N2CCCC2C(=O)N[C@@H](Cc2cnc[nH]2)C(=O)N[C@@H](CC(C)C)C(=O)N2C[C@H](O)C[C@H]2C(=O)N[C@@H](Cc2c[nH]c3ccccc23)C(=O)N[C@@H](CO)C(=O)N[C@@H](Cc2c[nH]c3ccccc23)C(=O)N1C` (stereo partly drawn) [Example 1240]: the IC50 fell in the range of 1000 to 10000 nM.

For the compound `CCCC[C@H]1C(=O)N(C)[C@@H](CCCC)C(=O)N[C@@H](CCC(=O)O)C(=O)N[C@H](C(=O)NCC(N)=O)CSCC(=O)N[C@@H](Cc2ccc(O)cc2)C(=O)N(C)[C@@H](C)C(=O)N[C@@H](CC(=O)O)C(=O)N2CCC[C@H]2C(=O)N[C@@H](CN)C(=O)N[C@@H](CCC(N)=O)C(=O)N2C[C@H](O)C[C@H]2C(=O)N[C@@H](Cc2c[nH]c3ccccc23)C(=O)N[C@@H](CO)C(=O)N[C@@H](Cc2c[nH]c3ccccc23)C(=O)N1C` [Example 5246] ({CH2CO}-Y[NMeA]DP[Dap]Q[Hyp]WSW[NMeNle][NMeNle]ECG-NH2; thioether N-14), the IC50 lay in the range of 1 to 9.9 nM.

Turning to `CCCC[C@H]1C(=O)N(C)[C@@H](CCCC)C(=O)N[C@@H](CCCN)C(=O)N[C@H](C(=O)NCC(N)=O)CSCC(=O)N[C@@H](Cc2ccc(OC)cc2)C(=O)N(C)[C@@H](C)C(=O)N[C@@H](CCN)C(=O)N2CCC[C@H]2C(=O)N[C@@H](Cc2cnc[nH]2)C(=O)N[C@@H](CCCCN)C(=O)N2C[C@H](O)C[C@H]2C(=O)N[C@@H](Cc2c[nH]c3ccccc23)C(=O)N[C@@H](CCN)C(=O)N[C@@H](Cc2c[nH]c3ccccc23)C(=O)N1C` [Example 7095] ({CH2CO}-Y(Me)[NMeA][Dab]PHK[Hyp]W[Dab]W[NMeNle][NMeNle][Orn]CG-NH2; thioether N-14), the IC50 fell in the range of 1 to 9.9 nM.

Consider `CCCC[C@H]1C(=O)N(C)[C@@H](CCCC)C(=O)N[C@@H](CCCNC(=N)N)C(=O)NC(C(=O)NCC(N)=O)CSCC(=O)N[C@@H](Cc2ccc(O)cc2)C(=O)N(C)[C@@H](C)C(=O)N[C@@H](CC(N)=O)C(=O)N2CCC[C@H]2C(=O)N[C@@H](CCO)C(=O)N[C@@H](CO)C(=O)N2CCC[C@H]2C(=O)N[C@@H](Cc2c[nH]c3ccccc23)C(=O)N[C@@H](CO)C(=O)N[C@@H](Cc2c[nH]c3ccccc23)C(=O)N1C` (stereo partly drawn) [Example 10034] ({CH2CO}-Y[NMeA]NP[hSer]SPWSW[NMeNle][NMeNle]R[ξC]G-NH2; thioether N-14), for which the IC50 fell in the range of 1 to 9.9 nM.

As for `CCCC[C@H]1C(=O)N2C[C@H](O)C[C@@H]2C(=O)N[C@@H](CC(=O)O)C(=O)N[C@@H](C(C)C)C(=O)N(C)[C@H](Cc2ccccc2)C(=O)N[C@@H](CCCCN)C(=O)N2C[C@H](O)C[C@@H]2C(=O)N[C@@H](Cc2c[nH]c3ccccc23)C(=O)N[C@@H](Cc2ccc(O)cc2)C(=O)N[C@@H](CCCN)C(=O)N[C@H](C(=O)NCC(N)=O)CSCC(=O)N[C@@H](Cc2ccc(F)c(F)c2)C(=O)N(C)[C@@H](Cc2ccccc2)C(=O)N1C` [Example 9307] ({CH2CO}-[Phe(3,4-F2)][NMeF][NMeNle][d(cisHyp)]DV[dNMeF]K[d(cisHyp)]WY[Orn]CG-NH2; thioether N-13), the IC50 was 1 to 9.9 nM.
